Measurements reported in US12473295B2, “Substituted straight chain spiro derivatives” (Janssen Pharmaceutica NV, priority 2019, dated 2025).
Counter-ions that a name gives are not always drawn.

What was measured:
OCI-AML3 cells = assay: Proliferation assay (spheroid growth, 8 days), OCI-AML3; format: cell-based, human; conditions: Homo sapiens, OCI-AML-3, […], OCI-AML3, 8 days
In short: (§1)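 IC50 values derive from day-8 spheroid confluence, normalized between DMSO-treated wells and the highest dose of a reference compound, fitted with a variable slope. Cells grew 8 days at 37° C under a compound concentration series in 0.3% DMSO.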

hERG = hERG (Homo sapiens (Human), UniProt Q12809); assay: Effect on membrane potassium current IKr in hERG-transfected HEK293 cells, Protocol 2 (SyncroPatch 384PE); format: cell-based; conditions: Protocol 2, hERG-transfected HEK293 cells
Chain of hERG (Q12809 whole entry): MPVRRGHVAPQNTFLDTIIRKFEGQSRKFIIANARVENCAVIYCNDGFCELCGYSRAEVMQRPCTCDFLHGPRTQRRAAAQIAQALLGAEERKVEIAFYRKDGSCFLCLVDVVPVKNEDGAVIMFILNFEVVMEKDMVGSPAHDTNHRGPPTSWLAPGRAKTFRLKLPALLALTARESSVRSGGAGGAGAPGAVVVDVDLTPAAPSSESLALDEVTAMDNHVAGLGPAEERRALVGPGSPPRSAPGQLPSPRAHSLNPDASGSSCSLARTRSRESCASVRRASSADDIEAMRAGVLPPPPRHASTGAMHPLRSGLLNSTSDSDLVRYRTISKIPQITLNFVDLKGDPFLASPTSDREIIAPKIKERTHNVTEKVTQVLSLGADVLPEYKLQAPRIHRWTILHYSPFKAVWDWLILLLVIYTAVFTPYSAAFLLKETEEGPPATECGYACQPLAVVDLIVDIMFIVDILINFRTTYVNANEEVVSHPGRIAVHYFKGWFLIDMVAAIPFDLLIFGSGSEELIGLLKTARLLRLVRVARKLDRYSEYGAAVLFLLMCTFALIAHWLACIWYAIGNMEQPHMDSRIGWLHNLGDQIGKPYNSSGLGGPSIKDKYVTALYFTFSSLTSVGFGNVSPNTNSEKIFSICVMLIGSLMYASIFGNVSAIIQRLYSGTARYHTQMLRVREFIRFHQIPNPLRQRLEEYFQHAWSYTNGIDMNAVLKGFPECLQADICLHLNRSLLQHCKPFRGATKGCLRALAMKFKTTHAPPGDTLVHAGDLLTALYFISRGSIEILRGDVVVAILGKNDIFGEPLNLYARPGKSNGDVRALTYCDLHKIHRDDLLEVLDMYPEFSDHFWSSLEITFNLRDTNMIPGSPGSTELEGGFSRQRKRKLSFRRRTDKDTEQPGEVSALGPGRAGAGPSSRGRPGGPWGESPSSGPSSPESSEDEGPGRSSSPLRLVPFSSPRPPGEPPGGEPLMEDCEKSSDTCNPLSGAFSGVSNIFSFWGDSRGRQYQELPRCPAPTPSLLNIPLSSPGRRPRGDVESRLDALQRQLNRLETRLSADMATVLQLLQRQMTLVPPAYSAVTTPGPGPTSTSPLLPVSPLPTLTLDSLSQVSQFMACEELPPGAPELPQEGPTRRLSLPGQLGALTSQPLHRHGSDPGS
Experimental: 8) Effect on the Membrane Potassium Current IKr in hERG Transfected Cell Lines
The compound, vehicle control and positive control were tested on hERG-transfected HEK293 cells. A human embryonic kidney cell line (HEK293) with a stable transfection of hERG (Zhou Z et al. Biophysical Journal 1998. 74, 230-241; McDonald T. V. et al, Nature 1997. 388, 289-292) was used (University of Wisconsin, Madison, USA). The cells were kept in culture in MEM (Minimum Essential Medium, Gibco) which was supplemented with (amounts indicated added to 500 ml MEM): 5 ml L-Glutamine-Penicillin-Streptomycin (Sigma), 50 ml Fetal Bovine serum (Bio-Whittaker), 5 ml Non-essential Amino Acids 100× (Gibco), 5 ml sodium pyruvate 100 mM (Gibco) and 4 ml geneticin 50 mg/ml (Gibco) using T175 flasks. The cells were incubated at 37° C. in 5% CO2 atmosphere (in air).
Cell Harvesting for Assay
Cells were harvested as described below using Accumax™ (Sigma) as the dissociating reagent. Cells were then resuspended in a mixture of 33% DMEM/F12 (Dulbecco's Modified Eagle Medium/Nutrient Mixture F-12—Sigma) media/67% extracellular physiological solution.
The flasks were washed twice carefully with ˜5-10 ml phosphate buffered saline (PBS) (Gibco™) containing 2 mM EDTA (Ethylenediaminetetraacetic acid) (Sigma). The cells were dissociated using ˜3 ml of Accumax™ (cell detachment solution) and incubated for ˜5 to 10 min. at 37° C. Cold external physiological solution (2-5 ml) was added and the flasks are incubated at ˜4° C. for 5-10 min. Then, the cell suspension in each flask was gently dissociated with a 5 ml pipette. The cell suspension was transferred to a low binding petri-dish (˜[…]). Each flask was washed with ˜additional 5 ml cold external physiological solution and this solution was also added to the petri-dish. The petri-dish was then incubated for another 5 to 10 minutes at ˜4° C. After another gentle dissociation of the cell suspension in the petri dish, the cells were transferred to a reservoir kept on an orbital shaker at 200 rpm at 16° C. Before experiments were performed, the cells recovered for ˜20 min.
A 10 mM solution of the compound was used and plated in a 384 well plate. Aliquots of the stock solutions are diluted with the recording solution (see section 3) using automated liquid handling (Biomek FXP; final DMSO concentration: 0.03 to 0.3%). A standard range of screening concentrations was used ranging from 1 μM to 30 μM.
A positive control (E-4031) was included within each run to evaluate the sensitivity of the assay.
External and Intracellular Solutions Used in the Experiments
In the table below the composition of the intracellular and external buffer solutions is shown in [mM] (“NMDG” means N-methyl-D-glucamine)
The whole cell patch clamp technique on transfected cells allows the study of ion-channels with no—or limited interference from other ion-channels. The effects of the compounds on the hERG current were studied with an automated planar patch clamp system, SyncroPatch 384PE (Obergrussberger et al, Journal of Laboratory Automation 2016. 21 (6). 779-793). All cells were recorded in the whole cell mode of the patch clamp technique. The module is incorporated in a liquid handling pipetting robot system, Biomek FXP, for application of cells and compounds, vehicle control and positive control.
The different concentrations of the compounds were applied in two cumulatively increasing concentrations for the compounds (1 μM and 10 μM, and 3 μM and 30 μM, respectively). The hERG current was determined as the maximal tail current at −30 mV and percent inhibition upon compound or vehicle and positive control addition was reported.
After cells are caught onto the individual holes of the recording chips using the chip fill solution, the seal is increased with the seal enhancer solution (increased [Ca^2+]; then the cells were washed twice with recording solution before using a pressure protocol to go into the whole cell mode. […]

MEIS1 mRNA = MEIS1 mRNA expression assay (Quantigene Singleplex) in MOLM14 cells; format: cell-based, human; conditions: Homo sapiens, MOLM-14, 48 h, 48 hours incubation;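 also: MEIS1 transcript levels read by probe hybridization and normalized to RPL28 mRNA, with IC50 fitted to fold changes across a rising compound concentration series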
[1] = biological target: menin/MLL (terbium chelate-labeled menin, FITC-MBM1 peptide) (Homo sapiens (Human), UniProt O00255); assay: Menin/MLL homogenous time-resolved fluorescence (HTRF) assay; format: binding; conditions: HTRF-30 min incubation IC50, 30 min incubation;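 also: IC50 from percent inhibition of HTRF signal, normalized between wells without competitor and wells with a saturating competitor that displaces FITC-MBM1 from His-tagged menin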
Chain of menin/MLL (terbium chelate-labeled menin, FITC-MBM1 peptide) (O00255 other isoform, or with tags, fused parts or gaps): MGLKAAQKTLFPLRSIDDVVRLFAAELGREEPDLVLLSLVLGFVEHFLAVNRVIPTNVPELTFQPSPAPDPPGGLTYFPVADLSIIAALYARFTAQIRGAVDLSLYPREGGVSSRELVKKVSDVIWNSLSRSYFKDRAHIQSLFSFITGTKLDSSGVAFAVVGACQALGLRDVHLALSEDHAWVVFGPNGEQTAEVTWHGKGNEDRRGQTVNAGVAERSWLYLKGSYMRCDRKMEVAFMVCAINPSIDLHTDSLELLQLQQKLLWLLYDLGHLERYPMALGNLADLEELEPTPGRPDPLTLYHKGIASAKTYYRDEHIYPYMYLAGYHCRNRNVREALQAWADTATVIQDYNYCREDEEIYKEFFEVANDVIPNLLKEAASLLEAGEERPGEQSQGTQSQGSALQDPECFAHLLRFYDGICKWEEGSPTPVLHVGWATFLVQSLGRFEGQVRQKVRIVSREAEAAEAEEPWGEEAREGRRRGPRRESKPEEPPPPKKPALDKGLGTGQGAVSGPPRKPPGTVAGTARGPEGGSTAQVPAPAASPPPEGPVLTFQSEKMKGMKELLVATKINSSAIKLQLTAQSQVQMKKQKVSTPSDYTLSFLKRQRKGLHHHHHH

KO-52 cells = assay: Proliferation assay (spheroid growth, 8 days), KO-52 control cell line; format: cell-based, human; conditions: Homo sapiens, […], read-out: spheroid assay_OneTime KO-52 IC50
In short: as §1

MOLM14 cells = assay: Proliferation assay (spheroid growth, 8 days), MOLM14; format: cell-based, human; conditions: Homo sapiens, MOLM-14, […], MOLM14, 8 days; read-out: spheroid assay_OneTime MOLM14 IC50;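 also: spheroid size read as confluence by live-cell imaging, compounds added at a range of concentrations with 0.3% DMSO, DMSO-treated wells = 0%, highest reference dose = low control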

Row | SMILES | IC50 (OCI-AML3 cells) | IC50 (hERG) | IC50 (MEIS1 mRNA) | IC50 [1] | IC50 (KO-52 cells) | IC50 (MOLM14 cells)
1 | CCN(C)CCC[C@H](C(C)C)N1CC2(CCN(c3ncnnc3Oc3ccc(F)cc3C(=O)N(CC)C(C)C)C2)C1 (single isomer, unassigned) [Compound 132, (*R)—N-ethyl-2-((5-(2-(6-(ethyl(methyl)amino)-2-methylhexan-3-yl)-2,6-diazaspiro[3.4]octan-6-yl)-1,2,4-triazin-6-yl)oxy)-5-fluoro-N-isopropylbenzamide fumarate] | 190 nM | > 30200 nM | 15 nM | 0.11 nM | 10400 nM | 33 nM
2 | CC(C)[C@H](CCCN(C)CCC(=O)N(C)C)N1CC2(CCN(c3ncnnc3Oc3ccc(F)cc3C(=O)N(C(C)C)C(C)C)C2)C1 (single isomer, unassigned) [Compound 146, (*S)-2-((5-(2-(6-((3-(dimethylamino)-3-oxopropyl)(methyl)amino)-2-methylhexan-3-yl)-2,6-diazaspiro[3.4]octan-6-yl)-1,2,4-triazin-6-yl)oxy)-5-fluoro-N,N-diisopropylbenzamide fumarate] | 1790 nM | > 30200 nM | 440 nM | 0.081 nM | > 15000 nM | 320 nM
3 | CCN(C(=O)c1cc(F)ccc1Oc1nncnc1N1CCC2(C1)CN([C@H](CCN(C)C)C(C)C)C2)C(C)C (single isomer, unassigned) [Compound 223, (*R)-2-((5-(2-(1-(dimethylamino)-4-methylpentan-3-yl)-2,6-diazaspiro[3.4]octan-6-yl)-1,2,4-triazin-6-yl)oxy)-N-ethyl-5-fluoro-N-isopropylbenzamide fumarate] | 990 nM | > 30200 nM | 200 nM | 0.4 nM | > 15000 nM | 180 nM
4 | CCN(C(=O)c1cc(F)ccc1Oc1nncnc1N1CCC2(C1)CN([C@H](CCNCCOC)C(C)C)C2)C(C)C (single isomer, unassigned) [Compound 227, (*R)—N-ethyl-5-fluoro-N-isopropyl-2-((5(2-(1-((2-methoxyethyl)amino)-4-methylpentan-3-yl)-2,6-diazaspiro[3.4]octan-6-yl)-1,2,4-triazin-6-yl)oxy)benzamide fumarate] | 130 nM | > 30200 nM | 76 nM | 0.15 nM | > 15000 nM | 46 nM
5 | CCN(C(=O)c1cc(F)ccc1Oc1nncnc1N1CCC2(C1)CN([C@H](C[C@H](C)CN(C)CCOC)C(C)C)C2)C(C)C (single isomer, unassigned) [Compound 242] | 1070 nM | > 30200 nM | 230 nM | 0.26 nM | > 15000 nM | 170 nM
6 | CCN(C(=O)c1cc(F)ccc1Oc1nncnc1N1CCC2(C1)CN([C@H](CCCN(C)CCN(C)C(C)=O)C(C)C)C2)C(C)C [Compound 148, (R)-N-ethyl-5-fluoro-N-isopropyl-2-((5-(2-(2-methyl-6-(methyl(2-(N-methylacetamido)ethyl)amino)hexan-3-yl)-2,6-diazaspiro[3.4]octan-6-yl)-1,2,4-triazin-6-yl)oxy)benzamide fumarate] | 340 nM | 12300 nM | 60 nM | 0.35 nM | > 15000 nM | 41 nM
